Assay results as given in article PMC3155955 (Bioorganic & medicinal chemistry letters, 2011).
pIC50: −log10 of the molar value.

Columns and labels:
[1] = tested on: HCT-116 human colon cancer cells; assay: MTS cytotoxicity assay, HCT-116; format: cell-based
[2] = tested on: CCD-18Co normal colon fibroblasts; assay: MTS cytotoxicity assay, CCD-18Co; format: cell-based, human; details: colon cancer cells (HCT-116, Caco-2) vs CCD-18Co
[3] = tested on: Caco-2 human colon cancer cells; assay: MTS cytotoxicity assay, Caco-2; format: cell-based; details: Caco-2, read-out: IC50 (consistent values of the control)

COc1cc2c3c(c1O)-c1cc4c(cc1C[C@@H]3N(C)CC2)OCO4 [Compound 1, domesticine]
fold less potent than the benchmark etoposide ([1]; HCT-116 cell line): approximately 3 fold

CCC(CC)COc1c(OC)cc2c3c1-c1cc4c(cc1C[C@@H]3N(C)CC2)OCO4 [Compound 3]
selectivity for colon cancer cells vs normal colon fibroblasts (CCD-18Co) [2]: approximately 2 fold

COc1cc([C@@H]2c3cc4c(cc3[C@@H](O[C@@H]3O[C@@H]5CO[C@@H](C)O[C@H]5[C@H](O)[C@H]3O)[C@H]3COC(=O)[C@H]23)OCO4)cc(OC)c1O [etoposide]
pIC50 ([1]; Homo sapiens, HCT-116, read-out: IC50 (consistent values of the control)): 4.60 to 4.82 | pIC50 [3]: 4.60 to 4.82
